Results on 21 molecules are retold here after patent US10208071B2, “Use of agonists of formyl peptide receptor 2 for treating ocular inflammatory diseases” (Allergan, Inc., priority 2013, dated 2019).

The EC50 is the midpoint of the concentration-response curve.

In the assay the target is FPR2 (Homo sapiens (Human), UniProt P25090). Put plainly: FLIPR Ca+2 response, HEK-Gα16 cells stably expressing the human FPR2 receptor (Table 4). The class given is cell-based. As to conditions: for FPR2 (efficacy): efficacy in parentheses. A digest of the protocol:
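HEK-Gα16 cells stably expressing human FPR2, loaded with 2 μM Fluo-4 in HBSS/20 mM HEPES for 40 min at 37° C., then washed. Ligands added in HBSS/Hepes and Ca+2 responses recorded on FLIPR in relative fluorescence units.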

FPR2, sequence (P25090 whole entry): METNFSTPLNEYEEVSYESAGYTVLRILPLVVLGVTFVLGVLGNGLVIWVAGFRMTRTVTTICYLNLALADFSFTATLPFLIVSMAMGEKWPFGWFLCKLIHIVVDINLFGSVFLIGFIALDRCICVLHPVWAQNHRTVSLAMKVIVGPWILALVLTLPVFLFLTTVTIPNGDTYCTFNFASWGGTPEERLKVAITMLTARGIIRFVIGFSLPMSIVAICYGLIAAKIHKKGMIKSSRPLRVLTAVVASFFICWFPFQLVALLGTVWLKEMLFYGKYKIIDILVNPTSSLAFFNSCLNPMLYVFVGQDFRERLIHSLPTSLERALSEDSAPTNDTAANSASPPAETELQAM

As for `CCOP(=O)(O)CNC(=O)[C@H](Cc1ccccc1)NC(=O)Nc1ccc(Br)cc1` [Compound 126, ethyl hydrogen ({[(2S)-2-{[(4-bromophenyl)carbamoyl]amino}-3-phenylpropanoyl]amino}methyl)phosphonate], the “FPR2 (efficacy)” value was “nM (1.0)”.
As for `CC(C)C[C@H](NC(=O)Nc1ccc(Br)cc1)C(=O)NCS(=O)(=O)O` [Compound 127, {[(2S)-2-{[(4-bromophenyl)carbamoyl]amino}-4-methylpentanoyl]amino} methanesulfonic acid], the EC50 is 2 nM and the “FPR2 (efficacy)” value is given as “nM (0.91)”.
For `CSc1ccc(NC(=O)N[C@@H](CC(C)C)C(=O)O)cc1` [Compound 128, (2S)-4-methyl-2-({[4-(methylsulfanyl)phenyl]carbamoyl}amino)pentanoic acid], in that order: 16.8 nM and “nM (0.92)”.
For `CSc1ccc(NC(=O)N[C@@H](CC(C)C)C(=O)NCC(=O)O)cc1` [Compound 130, {[(2S)-4-methyl-2-({[4-(methylsulfanyl)phenyl]carbamoyl}amino)pentanoyl]amino} acetic acid], in that order: 3 nM and “nM (1.0)”.
Turning to `CC(C)C[C@H](NC(=O)Nc1ccc(Br)cc1)C(=O)NCP(=O)(OC(C)C)OC(C)C` [Compound 131, dipropan-2-yl ({[(2S)-2-{[(4-bromophenyl)carbamoyl]amino}-4-methylpentanoyl]amino}methyl)phosphonate], the “FPR2 (efficacy)” value is listed as “nM (1.0)”.
Regarding `CC(C)C1(CO)NC(=O)N(NC(=O)Nc2ccc(Br)cc2)C1=O` (stereo not shown) [Compound 132, 1-(4-bromophenyl)-3-[4-(hydroxymethyl)-2,5-dioxo-4-(propan-2-yl)imidazolidin-1-yl]urea], the EC50 is 16.2 nM and the “FPR2 (efficacy)” value was “nM (0.86)”.
For `CC(C)C1(CC(=O)NCCO)NC(=O)N(NC(=O)Nc2ccc(Br)cc2)C1=O` (stereo not shown) [Compound 133, 2-[1-{[(4-bromophenyl)carbamoyl]amino}-2,5-dioxo-4-(propan-2-yl)imidazolidin-4-yl]-N-(2-hydroxyethyl)acetamide], in that order: 2.7 nM and “nM (1.0)”.
For `CCOP(=O)(CNC(=O)[C@H](CC(C)C)NC(=O)Nc1ccc(C(F)(F)F)cc1)OCC` [Compound 134, diethyl ({[(2S)-4-methyl-2-({[4-(trifluoromethyl)phenyl]carbamoyl}amino)pentanoyl]amino}methyl)phosphonate], in that order: 5.5 nM and “nM (0.97)”.
In the same order, the values of `CCOP(=O)(O)CNC(=O)[C@H](CC(C)C)NC(=O)Nc1ccc(C(F)(F)F)cc1` [Compound 135, ethyl hydrogen ({[(2S)-4-methyl-2-({[4-(trifluoromethyl)phenyl]carbamoyl}amino)pentanoyl]amino}methyl)phosphonate] are 1.9 nM and “nM (0.91)”.
For `CC(C)C[C@H](NC(=O)Nc1ccc(C(F)(F)F)cc1)C(=O)NCc1nnn[nH]1` [Compound 136, (2S)-4-methyl-N-(1H-tetrazol-5-ylmethyl)-2-({[4-(trifluoromethyl)phenyl]carbamoyl}amino)pentanamide], the 50% effective concentration (EC50) was 3.7 nM and the “FPR2 (efficacy)” value is “nM (0.96)”.
Turning to `CCOP(=O)(CNC(=O)[C@H](CC(C)C)NC(=O)Nc1ccc(SC)cc1)OCC` [Compound 138, diethyl ({[(2S)-4-methyl-2-({[4-(methylsulfanyl)phenyl]carbamoyl}amino)pentanoyl]amino}methyl)phosphonate], the concentration giving a half-maximal response (EC50) is 3.5 nM and the “FPR2 (efficacy)” value was “nM (0.91)”.
For `CC(C)C[C@H](NC(=O)Nc1ccc(C(F)(F)F)cc1)C(=O)NC(C)(C)C(=O)O` [Compound 139, 2-methyl-2-{[(2S)-4-methyl-2-({[4-(trifluoromethyl)phenyl]carbamoyl}amino)pentanoyl]amino} propanoic acid], in that order: 2.5 nM and “nM (0.92)”.
Regarding `CCC1(CCc2ccccc2C(=O)OC)NC(=O)N(NC(=O)Nc2ccc(Br)cc2)C1=O` (stereo not shown) [Compound 141, methyl 2-[2-(1-{[(4-bromophenyl)carbamoyl]amino}-4-ethyl-2,5-dioxoimidazolidin-4-yl)ethyl]benzoate], a half-maximal effect (EC50) was put at 10.3 nM and the “FPR2 (efficacy)” value is “nM (0.92)”.
In the same order, the values of `CC(C)C1(CC(=O)NC(CO)CO)NC(=O)N(NC(=O)Nc2ccc(Br)cc2)C1=O` (stereo not shown) [Compound 142, 2-[1-{[(4-bromophenyl)carbamoyl]amino}-2,5-dioxo-4-(propan-2-yl)imidazolidin-4-yl]-N-(1,3-dihydroxypropan-2-yl)acetamide] are 13.8 nM and “nM (0.92)”.
For `CCC1(CCc2ccccc2C(=O)O)NC(=O)N(NC(=O)Nc2ccc(Br)cc2)C1=O` (stereo not shown) [Compound 143, 2-[2-(1-{[(4-bromophenyl)carbamoyl]amino}-4-ethyl-2,5-dioxoimidazolidin-4-yl)ethyl]benzoic acid], in that order: 17.2 nM and “nM (1.0)”.
In the same order, the values of `CSCC[C@H](NC(=O)Nc1ccc(Br)cc1)C(=O)NCC(=O)O` [Compound 144, {[(2S)-2-{[(4-bromophenyl)carbamoyl]amino}-4-(methylsulfanyl)butanoyl]amino} acetic acid] are 6.3 nM and “nM (0.91)”.
Turning to `CC(C)C1(CC(=O)NCCC(=O)O)NC(=O)N(NC(=O)Nc2ccc(Br)cc2F)C1=O` (stereo not shown) [Compound 145, 3-({[-{[(4-bromo-2-fluorophenyl)carbamoyl]amino}-2,5-dioxo-4-(propan-2-yl)imidazolidin-4-yl]acetyl}amino)propanoic acid], the EC50 amounted to 1 nM and the “FPR2 (efficacy)” value is recorded as “nM (1.0)”.
In the same order, the values of `CCC1(CCc2ccccc2C(=O)O)NC(=O)N(NC(=O)Nc2ccc(Br)cc2F)C1=O` (stereo not shown) [Compound 146, 2-[2-(1-{[(4-bromo-2-fluorophenyl)carbamoyl]amino}-4-ethyl-2,5-dioxoimidazolidin-4-yl)ethyl]benzoic acid] are 11.1 nM and “nM (1.0)”.
For `CC(C)C1(CC(=O)NCCC(=O)O)NC(=O)N(NC(=O)Nc2ccc(Br)cc2)C1=O` (stereo not shown) [Compound 147, 3-({[1-{[(4-bromophenyl)carbamoyl]amino}-2,5-dioxo-4-(propan-2-yl)imidazolidin-4-yl]acetyl}amino)propanoic acid], in that order: 3.9 nM and “nM (0.99)”.
For `CC(C)C1(CC(=O)NCCO)NC(=O)N(NC(=O)Nc2ccc(Br)cc2F)C1=O` (stereo not shown) [Compound 148, 2-[1-{[(4-bromo-2-fluorophenyl)carbamoyl]amino}-2,5-dioxo-4-(propan-2-yl)imidazolidin-4-yl]-N-(2-hydroxyethyl)acetamide], in that order: 6.9 nM and “nM (0.98)”.
Consider `CCOC(=O)CCC1(C(C)C)NC(=O)N(NC(=O)Nc2ccc(Br)cc2)C1=O` (stereo not shown) [Compound 149, ethyl 3-[1-{[(4-bromophenyl)carbamoyl]amino}-2,5-dioxo-4-(propan-2-yl)imidazolidin-4-yl]propanoate], for which a half-maximal response (EC50) required 6.6 nM and the “FPR2 (efficacy)” value is “nM (0.94)”.
